Experiments:
wt ARBTH = assay: In vitro plate test of herbicide cross resistance: wild-type Arabidopsis; assay type: in vivo, Arabidopsis thaliana; settings: 7 days
Protocol: (§1) The ability of AAD1 (v3) to provide resistance to other aryloxyphenoxyalkanoate herbicides in transgenic Arabidopsis was determined using a modified in vitro plate assay. Seeds from wild-type Arabidopsis thaliana as well as Arabidopsis thaliana containing the plant optimized AAD1 (v3) gene (T4 homozygous plants id=PAAD1.315.064) were sterilized by agitating for 10 min in a 50% bleach solution. These seeds were then rinsed four times with sterile water to remove the bleach.
(§2) Dose response assays utilized a nutrient media (see below) supplemented with various rates of test compounds. The test compounds were added to the heated media (55° C.) as concentrated solutions in DMSO. Control wells had the appropriate amount of DMSO without any additional compound. The final concentration of DMSO never exceeded 1% (v/v). After thorough mixing, a 6 mL aliquot of the warm media containing the appropriate concentration of compound was added to each well of a 6-well, flat bottom, polystyrene tissue culture tray (Falcon 353046, Becton Dickson and Company, Franklin Lakes, N.J.). After the media solidified, approximately 20 to 30 Arabidopsis seeds were applied on top of the solidified media and the remaining 2 mL of media was poured over the seeds. The plates were lightly agitated to disperse the seeds, covered and allowed to cool until the media had completely solidified. The plates were incubated for 7 days at 25° C. under continual fluorescent lighting (75 μE m^−2 s^−1). Nutrient Media Composition was as described in Example 2.2 and in Somerville and Orgen (1982).
(§3) Assessment of Growth Reduction. The apical portion of the Arabidopsis plants grown in the treated media was assessed visually relative to the apical portion of the plants grown in the media containing only DMSO. Values were recorded as % growth reduction. Assessments of root growth inhibition of the Arabidopsis plants grown in the treated media were achieved by carefully extracting the plants from the media and measuring the length of the root. These root lengths were then compared to the root length of the control plants to determine a % growth reduction. A minimum of five plants were assessed for each treatment. The values recorded are an average of all the plants assessed. The calculated concentration to reach 50% inhibition effect (I50) were determined for both root and shoots of wildtype and AAD1-transformed Arabidopsis. The ratios of resistant to sensitive biotypes are included in Table 19. A ratio>2 for both root and shoot measurements generally signifies significant resistance. The higher the ratio, the greater the level of resistance. […] The broad phenoxy auxin resistance is the first reported in planta.

PAAD1.315.064 ARBTH = assay: In vitro plate test of herbicide cross resistance: homozygous T4 AAD1 (v3) Arabidopsis; assay type: in vivo, Arabidopsis thaliana
Protocol: as §1, §2, §3

[1] = system: Arabidopsis thaliana var. Columbia; assay: Arabidopsis plate test bioassay for herbicide degradation; assay type: in vivo; settings: Arabidopsis thaliana, 168 h, read-out: GR50, Chemical alone
[2] = system: T4 Arabidopsis homozygous for AAD1 (v3) (line AAD1.01.315.076); assay: Foliar-applied auxinic herbicides on homozygous T4 AAD1 (v3) Arabidopsis, % injury 14 DAT; assay type: in vivo, Arabidopsis thaliana; settings: foliar, 50-3200 g ae/ha
Protocol: The ability of AAD1 (v3) to provide resistance to other aryloxyphenoxyalkanoate auxin herbicides in transgenic Arabidopsis was determined by foliar application of various substrates described in Example 6.8. T4 generation Arabidopsis seed, homozygous for AAD1 (v3) (line AAD1.01.315.076) was stratified, and sown into selection trays much like that of Arabidopsis (Example 6.4). A transformed-control line containing PAT and the insect resistance gene Cry1F was planted in a similar manner. Seedlings were transferred to individual 3-inch pots in the greenhouse. All plants were sprayed with the use of a track sprayer set at 187 L/ha. […] All applications were formulated in 200 mM Hepes buffer (pH 7.5). Each treatment was replicated 3-4 times. Plants were evaluated at 3 and 14 days after treatment and are averaged over two experiments.

[3] = resistant to sensitive biotype, >2 signifies resistance

Row | SMILES | wt ARBTH root 150 (wt ARBTH; root) [ppm] | wt ARBTH shoot 150 (wt ARBTH; shoot) [ppm] | root ratio (PAAD1.315.064 ARBTH; [3]) | shoot ratio (PAAD1.315.064 ARBTH; [3]) | resistance afforded by AAD1 (v3) in plate test (PAAD1.315.064 ARBTH; root and shoot assessment) | PAAD1.315.064 ARBTH root 150 (PAAD1.315.064 ARBTH; root, 7 days) [ppm] | PAAD1.315.064 T3 ARBTH shoot 150 (PAAD1.315.064 ARBTH; shoot, 7 days) [ppm] | IC50 [1] [µM] | effect of the metabolite on wildtype or transgenic Arabidopsis [2]
1 | Nc1c(Cl)c(Cl)nc(C(=O)O)c1Cl [Picloram] | 0.3 | 1 | 0.5 | 0.5 | did not effectively protect | 0.15 | 0.5 | – | –
2 | Oc1ccc(Cl)cc1Cl [DCP, 2,4-dichlorophenol] | – | – | – | – | – | – | – | > 1 | no effect
